Data on 3 molecules can be found in article PMC11876601 (Molecular Systems Biology, 2025).

One test deals with BTK. Further details: method as in Reinecke et al. (2023). The conditions noted are these: 5 cell line mix lysate, Kinobeads ε, ref Reinecke et al. (2023), cited from earlier work.
A further test concerns MAPK8. Further details: method as in Reinecke et al. (2023). The following applies: MAPK8, 5 cell line mix lysate, Kinobeads ε, ref Reinecke et al. (2023), cited from earlier work.
The next test deals with AZI2. The following applies: AZI2, 5 cell line mix lysate, Kinobeads ε, ref Reinecke et al. (2023), cited from earlier work.
Another test concerns the target LCK. On the set-up: method as in Reinecke et al. (2023). The conditions noted are these: 5 cell line mix lysate, Kinobeads ε, ref Reinecke et al. (2023), cited from earlier work.
For another test, the system named is PRKX. On the set-up: method as in Klaeger et al. (2017). The following applies: lysate 4 cell line mix (Colo205, K-562, MV-4-11, and SK-N-BE(2)), Kinobeads y, ref Klaeger et al. (2017); cited from earlier work.
The test system of a further test is RPS6KA3. On the set-up: method as in Klaeger et al. (2017). The following applies: lysate 4 cell line mix (Colo205, K-562, MV-4-11, and SK-N-BE(2)), Kinobeads y, ref Klaeger et al. (2017); cited from earlier work.
A further test relates to PDO UME053. The test is described as follows: PDO viability assay (CellTiter-Glo, 72 h). It is filed as cell-based, human. Further details: Curve top / Curve bottom: scale not given here. The method, then:
(§1) Primary patient-derived PDAC organoid (PDO) experiments were performed in the laboratories of Prof. Maximilian Reichert (University Hospital of the TU Munich, Germany, PDO set 1: B250, B535, B678) and Prof. Jens T. Siveke (University Hospital Essen, Germany; PDO set 2: UME008, UME012, UME051, UME053, UME060, UME061). PDOs were generated from surgical resection, EUS-guided fine needle biopsy (EUS-FNB), or ascites (Appendix Table S2). Surgical specimens were first minced with a sterile scalpel and subsequently washed with Anti-Anti solution and washing medium (PDO set 1), or vice versa (PDO set 2; Appendix Table S3). Biopsy samples were directly washed with an Anti-Anti solution and washing medium. Samples were digested using 1 ml of digestion medium at 37 °C while shaking, and the enzymatic reaction was stopped by adding 15 ml of washing medium (Appendix Table S3). If samples of PDO set 1 were blood-stained, tissue pellets were first incubated with ACK lysing buffer/red blood cells lysis buffer (Thermo Fisher Scientific) for 5 min and then digested using TrypLE (Thermo Fisher Scientific). The reversed procedure was applied for blood-stained samples of PDO set 2. For PDO generation from ascites, the material was first spun down at 500 × g for 5 min. Then, washing medium was added and the suspension was centrifuged at 300 × g for 5 min. If the pellet was blood-stained, ACK lysis buffer was added and incubated at room temperature.
(§2) For viability assays in PDOs, confluent organoids were removed from medium, and Matrigel was dissolved by adding 200 μl (PDO set 1) or 2 ml (PDO set 2) of Cell Recovery Solution (Corning), and additionally 500 μl of DPBS (PDO set 1 only). Samples were transferred into a falcon and incubated on ice for 30 min, followed by centrifugation at 300 × g at 4 °C for 5 min (after adding 10 ml washing medium for PDO set 2). Subsequently, TrypLE Express Enzyme (Thermo Fisher) was added to cell pellets and incubated for 2 × 5 min at 37 °C. The enzymatic reaction was quenched by DPBS (PDO set 1) or washing medium (PDO set 2), and samples were washed by centrifugation at 300 × g at 4 °C for 5 min. Five hundred cells/well were seeded in 384-well plates (Corning) in 50 μl of PDO medium containing 10% Matrigel. To allow PDO generation, cells were incubated for 4 days at 37 °C and 5% CO2. […] Experiments were pipetted manually (PDO set 1) or automatically using a TECAN D300e Digital Dispenser (HP; PDO set 2). Treatments were performed in eight replicates, except for PDO PPES045 (quadruplicates). After 72 h, cell viability was measured using the CellTiter-Glo Luminescent Cell Viability Assay (Promega) diluted 1:5 in the final volume of the well. After 20 min of incubation at room temperature under gentle shaking, the acquisition was performed in the microplate reader VantaSTAR (BMG Labtech) using 3000 gain for the amplification measurement of a detected signal (PDO set 1) or the Spark Multimode microplate reader (TECAN) at 800 ms integration time (PDO set 2).

The test system of the next test is PDO B250. The test is described as follows: PDO viability assay (CellTiter-Glo, 72 h). It counts as cell-based, human. The conditions noted are these: for pEC50: single replicates R1-R8. The method, then:
as §1, §2

The next test deals with PDO UME060. The test is described as follows: PDO viability assay (CellTiter-Glo, 72 h). It counts as cell-based, human. On the procedure:
as §1, §2
Background: In ATP-based viability assays light output follows the ATP content of the culture.

[1] abbreviates: PDO UME053, GEM + Elimusertib (ATRi) dose1, per replicate.
Setting [2] is: PDO UME053, GEM + Elimusertib (ATRi) dose2, per replicate.
Where [3] appears, read: PDO UME053, GEM + Elimusertib (ATRi) dose3, per replicate.
Setting [4] is: PDO UME053, GEM alone, per replicate.
Where [5] appears, read: PDO UME053, experiment GEM (GEM alone), curve fit.

Structures are written as SMILES. Where “and” joins values, the source holds several entries; their conditions need not be identical. Equal values may be shown once. Read-outs that look alike come from different tables or passages of the source.
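Throughout, for Curve top: fraction of plate-wise median vehicle signal.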

As to `COc1cc(N2CCC(N3CCN(C)CC3)CC2)ccc1Nc1ncc(Cl)c(Nc2ccccc2P(C)(C)=O)n1` [Brigatinib], the Kd on BTK (read-out: KDapp) was 1480 nM; on MAPK8 (read-out: KDapp), 1420 nM; on AZI2 (read-out: KDapp), 789 nM; at LCK (read-out: KDapp), 963 nM. Moreover, the EC50 with BTK is 3780 nM; in the test with MAPK8, 2200 nM; with AZI2, 1120 nM; with LCK it was 2190 nM. For the same molecule, the pKDapp at BTK is listed as 5.83; at MAPK8, 5.85; at AZI2, 6.10; on LCK, 6.02.
`C[C@]12O[C@H](C[C@]1(O)CO)n1c3ccccc3c3c4c(c5c6ccccc6n2c5c31)CNC4=O` [Lestaurtinib]: the EC50 with PRKX is […]; in the test on RPS6KA3, 2790 nM.
With `Nc1ccn([C@@H]2O[C@H](CO)[C@@H](O)C2(F)F)c(=O)n1` [GEM, Gemcitabine], the EC50 in the test on PDO UME053 (Homo sapiens, PDO UME053, GEM + Elimusertib (ATRi) dose1, mean of replicates, read-out: EC50 mean) was 3.76 nM; in the test on PDO UME053 (Homo sapiens, PDO UME053, GEM + Elimusertib (ATRi) dose1, per replicate, read-out: EC50), 4.76 nM; with PDO UME053 (Homo sapiens, PDO UME053, GEM + Elimusertib (ATRi) dose1, per replicate, read-out: pEC50 (converted)) it was 4.79 nM; in the test with PDO UME053 (Homo sapiens, PDO UME053, GEM + Elimusertib (ATRi) dose2, mean of replicates, read-out: EC50 mean), 2.48 nM; with PDO UME053 (Homo sapiens, PDO UME053, GEM + Elimusertib (ATRi) dose3, mean of replicates, read-out: EC50 mean), 2.58 nM; in the test with PDO UME053 (Homo sapiens, PDO UME053, GEM alone, mean of replicates, read-out: EC50 mean) it was 3.83 nM. Further, the EC50 is 4.9 nM in the test with PDO UME053 (Homo sapiens, PDO UME053, GEM alone, per replicate, read-out: EC50); 4.9 nM in the test on PDO UME053 (Homo sapiens, PDO UME053, GEM alone, per replicate, read-out: pEC50 (converted)); 3.8 nM in the test on PDO UME053 (Homo sapiens, PDO UME053, GEM alone, read-out: EC50 mean); 3.83 nM in the test on PDO UME053 (Homo sapiens, PDO UME053, experiment GEM (GEM alone), mean of replicates, read-out: EC50 mean); 5.75 nM in the test on PDO UME053 (Homo sapiens, PDO UME053, experiment GEM (GEM alone), single replicates, read-out: pEC50 (converted)); 5.76 nM with PDO UME053 (Homo sapiens, SET-2, PDO UME053, PDO set 2, experiment GEM (GEM alone), single replicates, read-out: EC50). In addition, the EC50 with PDO UME053 (PDO UME053, GEM + Elimusertib (ATRi) dose1, per replicate, read-out: EC50) was 3.51 nM and 3.42 nM and 4.59 nM and 3.68 nM and 3.05 nM; in the test on PDO UME053 (PDO UME053, GEM + Elimusertib (ATRi) dose2, per replicate, read-out: EC50) it was 3.13 nM and 3.73 nM and 2.51 nM and 1.19 nM and 1.27 nM; in the test on PDO UME053 (PDO UME053, GEM + Elimusertib (ATRi) dose3, per replicate, read-out: EC50) it was 2.72 nM and 2.86 nM and 2.18 nM and 1.18 nM and 1.85 nM; in the test on PDO UME053 (PDO UME053, GEM alone, per replicate, read-out: EC50), 3.43 nM and 2.87 nM and 2.77 nM and 4.39 nM and 2.68 nM; with PDO UME053 (PDO UME053, PDO set 2, experiment GEM (GEM alone), single replicates, read-out: EC50) it was 3.82 nM; in the test with PDO B250 (Experiment GEM (GEM alone), single replicates R1-R8, read-out: EC50) it was 185 nM and 427 nM and 194 nM and 239 nM and 177 nM and 398 nM and 263 nM and 393 nM. In addition, the EC50 in the test on PDO B250 (Experiment GEM+ATRi_dose1 (ATRi = Elimusertib), single replicates R1-R8, read-out: EC50) was 516 nM and 389 nM and 140 nM and 262 nM and 135 nM and 54.9 nM and 185 nM and 183 nM; in the test on PDO B250 (Homo sapiens, Experiment GEM (GEM alone), mean of replicates, read-out: EC50 mean), 284 nM; in the test with PDO B250 (Homo sapiens, Experiment GEM+ATRi_dose1 (ATRi = Elimusertib), mean of replicates, read-out: EC50 mean), 233 nM; in the test on PDO B250 (Homo sapiens, Experiment GEM+ATRi_dose2 (ATRi = Elimusertib), mean of replicates, read-out: EC50 mean) it was 265 nM; with PDO B250 (Homo sapiens, GEM alone, read-out: EC50 mean), 284 nM; in the test on PDO UME060 (Homo sapiens, PDO UME060, GEM alone, read-out: EC50 mean) it was 23.4 nM. The EC50 is 23.4 nM in the test on PDO UME060 (Homo sapiens, PDO UME060, experiment GEM (GEM alone), mean of replicates, read-out: EC50 mean); 31.8 nM and 30.4 nM and 22.2 nM and 14.8 nM and 21.8 nM and 39.5 nM and 17.7 nM and 9.22 nM in the test on PDO UME060 (PDO UME060, PDO set 2, experiment GEM (GEM alone), single replicates, read-out: EC50). In addition, the Curve bottom was 4.76 and 3.51 and 3.42 and 4.59 and 3.68 and 3.05 in the test on PDO UME053 (setting [1]); 3.13 and 3.73 and 2.51 and 1.19 and 1.27 in the test with PDO UME053 (setting [2]); 2.72 and 2.86 and 2.18 and 1.18 and 1.85 with PDO UME053 (setting [3]); 4.90 and 3.43 and 2.87 and 2.77 and 4.39 and 2.68 in the test with PDO UME053 (setting [4]); 5.76 and 3.82 in the test on PDO UME053 (setting [5]). Moreover, the Curve slope is -0.0232 and -0.0231 and -0.0214 and -0.0351 and 0.00541 and -0.00734 with PDO UME053 (setting [1]); -0.0242 and -0.026 and -0.0173 and -0.00205 and -0.00262 in the test on PDO UME053 (setting [2]); -0.02 and -0.027 and -0.013 and -0.0115 with PDO UME053 (setting [3]); -0.0183 and 6.71e-5 and 0.00446 and -0.00144 and 0.00242 and 0.00525 in the test with PDO UME053 (setting [4]). In addition, the Curve top in the test with PDO UME053 (setting [1]) is 1.03 and 0.94; with PDO UME053 (setting [2]), 1.01 and 0.93 and 0.97 and 0.99; with PDO UME053 (setting [3]) it was 0.85 and 0.95 and 0.90; with PDO UME053 (setting [4]) it was 1.30 and 1.34; with PDO UME053 (setting [5]) it was 0.62; in the test on PDO UME060 (PDO UME060, experiment GEM (GEM alone), curve fit), 1.00 and 0.88 and 1.04 and 0.95 and 1.07 and 0.83 and 1.30. The pEC50 was 8.45 and 8.47 and 8.34 and 8.43 and 8.52 with PDO UME053 (setting [1]); 8.50 and 8.43 and 8.60 and 8.92 and 8.90 with PDO UME053 (setting [2]); 8.56 and 8.54 and 8.66 and 8.93 and 8.73 in the test on PDO UME053 (setting [3]); 8.46 and 8.54 and 8.56 and 8.36 and 8.57 in the test on PDO UME053 (setting [4]); 8.42 in the test with PDO UME053 (PDO UME053, experiment GEM (GEM alone), single replicates); 6.73 and 6.37 and 6.71 and 6.62 and 6.75 and 6.40 and 6.58 and 6.41 with PDO B250 (Experiment GEM (GEM alone)). The negative logarithm of the EC50 (pEC50) is 6.29 and 6.41 and 6.85 and 6.58 and 6.87 and 7.26 and 6.73 and 6.74 in the test on PDO B250 (Experiment GEM+ATRi_dose1 (ATRi = Elimusertib)); 7.50 and 7.52 and 7.65 and 7.83 and 7.66 and 7.40 and 7.75 and 8.04 in the test with PDO UME060 (PDO UME060, experiment GEM (GEM alone), single replicates).

A word on the pEC50: it is −log10 of the EC50, conventionally taken in molar units.
